Data as given in patent publication US7648824B2, “Method of sequencing DNA” (Qiagen GmbH, priority 2000, dated 2010).
Entries after “also recorded” stand apart in the source; their conditions may differ.

Key:
luciferase [1] = molecular target: T1, luciferase (Photinus pyralis, UniProt P08659); experiment: Model system simulating PPi-based sequencing: nucleotide plus ATP added to luciferase/apyrase/substrate mixture, light signal height; type: biochemical; conditions: for luciferase activity (signal intensity, height of ascending curve): 50 additions of nucleotide + 2 μM ATP in 50 minutes, 100 ng luciferase, 50 mU apyrase, room temperature
T1 construct: purchased BioThema, Dalaro, Sweden
Method: (§1) In this Example a series of 5 experiments were carried out to examine the inhibitory effect of each of the 5 nucleotides (dATP, dATPαS, dCTP, dGTP and dTTP) on the enzymes apyrase and luciferase. A model system was used which simulated the effects of these enzymes in a PPi-based sequencing reaction. Each nucleotide was added to the luciferase/apyrase/substrate mixture, along with ATP (to provide a substrate for luciferase), and the effect of each nucleotide addition on the enzymes was monitored by observing the light signals generated from the luciferase reaction.
(§2) The reactions were performed at room temperature in a volume of 50 μl on an automated prototype Pyrosequencer instrument (kindly supplied by Pyrosequencing AB, Uppsala, Sweden). The reaction mixture contained: 50 mU apyrase (Sigma Chemical Co., USA), 100 ng purified luciferase (BioThema, Dalaro, Sweden), 0.1 M Tris-acetate (pH 7.75), 0.5 mM EDTA, 5 mM magnesium acetate, 0.1% bovine serum albumin, 1 mM dithiothreitol, 0.4 mg/ml polyvinylpyrrolidone (360 000), and 100 μg/ml D-luciferin (BioThema). An ATP concentration of 2 μM was added to different nucleotides (dATP, dATPαS, dCTP, dGTP and dTTP), as shown in FIGS. 1 to 5 to follow the activity of luciferase and apyrase. For investigation of the effect of Shrimp Alkaline Phosphatase (Amersham Pharmacia Biotech, Uppsala, Sweden), two units of this enzyme were added to the reaction mixture—see further below. In total, 50 additions of nucleotide and ATP mixture were performed in 50 minutes. The output of light resulting from nucleotide incorporation was detected by a CCD-camera. The data was obtained in Excel format.

apyrase [2] = molecular target: T2, apyrase (Solanum tuberosum, UniProt P80595); experiment: Model system simulating PPi-based sequencing: nucleotide plus ATP added to luciferase/apyrase/substrate mixture, slope of descending curve / signal width; type: biochemical; conditions: for apyrase activity (slope of descending curve, signal width): 50 additions of nucleotide + 2 μM ATP in 50 minutes, 100 ng luciferase, 50 mU apyrase, room temperature
T2 construct: purchased Sigma Chemical Co., USA
T2 sequence (P80595 1-454): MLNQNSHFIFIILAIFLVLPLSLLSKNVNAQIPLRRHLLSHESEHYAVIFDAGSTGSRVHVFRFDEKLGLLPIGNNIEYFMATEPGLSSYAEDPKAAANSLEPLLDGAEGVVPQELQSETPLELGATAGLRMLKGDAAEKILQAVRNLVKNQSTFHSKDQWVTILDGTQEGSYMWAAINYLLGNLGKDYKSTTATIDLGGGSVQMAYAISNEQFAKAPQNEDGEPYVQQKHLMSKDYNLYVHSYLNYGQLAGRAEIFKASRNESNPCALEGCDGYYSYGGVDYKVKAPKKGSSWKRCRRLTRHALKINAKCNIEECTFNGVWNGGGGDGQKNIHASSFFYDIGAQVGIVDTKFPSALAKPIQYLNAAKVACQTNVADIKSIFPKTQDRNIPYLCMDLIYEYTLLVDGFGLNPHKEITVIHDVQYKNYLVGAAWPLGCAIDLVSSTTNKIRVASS
Method: as §1, §2

[3] = system: Enzyme mix (DNA polymerase, ATP-sulphurylase, apyrase and luciferase); experiment: Preincubation of Pyrosequencing reaction mixture with nucleotide, then PPi-based sequencing with ELIDA detection; type: biochemical; conditions: for effect of preincubation on the sequencing reaction: similar experiment, nucleotides from prototype PSQ 96 SNP Reagent kit, 2 pmol template, control 1×TE, results not shown; for inhibition of the sequencing reaction: preincubation with 5, 10 or 20 μl nucleotide for 10 minutes at room temperature without template, compared with 0 μl
Method: (§3) In this example, the inhibitory effect of dATPαS on a PPi-based sequencing reaction with ELIDA detection (known as Pyrosequencing) was investigated by preincubating the reaction mixture in the absence of template with varying amounts of the normal (i.e. racemic) dATPαS (containing both Rp and Sp isomers), or the pure Sp isomer of dATPαS. After preincubation, template was added and a normal “Pyrosequencing™”, reaction was carried out.
(§4) The “normal” dATPαS was taken from the PSQ 96 SNP Reagent kit supplied by Pyrosequencing AB (Uppsala, SE). The pure Rp and Sp isomers were purchased from Biolog Life Science (Bremen, Germany). The reaction mixture also included Enzyme mix (DNA polymerase, ATP-sulphurylase, apyrase and luciferase) and Substrate mix (luciferin and APS), from the PSQ 96 SNP Reagent kit supplied by Pyrosequencing AB. The template was an oligonucleotide (interactiva, Ulm, Germany) from which the following sequence could be read after annealing of a sequencing primer: […].
The pure isomer samples were diluted to the same concentration as the dATPαS in the PSQ 96 SNP Reagent kit. For preincubation, 0, 5, 10 or 20 μl of each A-sample (normal dATPαS or the Rp or Sp isomer) was added to a mixture containing 5 μl Enzyme mix, 5 μl Substrate mix in a total volume of 45 μl. The reaction was carried out in the 96 well plate delivered with the PSQ 96 SNP Reagent kit. The reaction was incubated at room temperature, in the dark for 10 minutes. After this, […] in 5 μl annealed oligonucleotide template was added to each well and the plate was transferred […] the PSQ 96 instrument, where a normal “Pyrosequencing™” reaction was carried out (omitting addition of Enzyme and Substrate mixes).
A similar experiment was also performed where the preincubation was carried out comparing “normal” dATPαS with dCTP, dGTP or dTTP, all from a prototype to the PSQ 96 SNP Reagent kit. As control, only 1×TE (dilution buffer for the dNTPs) was added. The template was the same as above, but 2 pmol were added to each well.

apyrase [4] = molecular target: T2, apyrase; experiment: Preincubation of Pyrosequencing reaction mixture with nucleotide, signal width; type: biochemical; conditions: preincubation with 5, 10 or 20 μl nucleotide for 10 minutes, compared with 0 μl
Method: as §3, §4
(§5) The pure isomer samples were diluted to the same concentration as the dATPαS in the PSQ 96 SNP Reagent kit. For preincubation, 0, 5, 10 or 20 μl of each A-sample (normal dATPαS or the Rp or Sp isomer) was added to a mixture containing 5 μl Enzyme mix, 5 μl Substrate mix in a total volume of 45 μl. The reaction was carried out in the 96 well plate delivered with the PSQ 96 SNP Reagent kit. […]

luciferase [5] = molecular target: T1, luciferase; experiment: Preincubation of Pyrosequencing reaction mixture with nucleotide, signal intensity; type: biochemical; conditions: preincubation with 5, 10 or 20 μl nucleotide for 10 minutes, compared with 0 μl
Method: as §3, §4, §5

luciferase [6] = molecular target: T1, luciferase; conditions: literature report, Ford et al., 1998; cited from earlier work
[7] = 0.7 mM dATPαS + 2 μM ATP, 50 cycles, 2 U alkaline phosphatase added

T1 sequence (P08659 whole entry): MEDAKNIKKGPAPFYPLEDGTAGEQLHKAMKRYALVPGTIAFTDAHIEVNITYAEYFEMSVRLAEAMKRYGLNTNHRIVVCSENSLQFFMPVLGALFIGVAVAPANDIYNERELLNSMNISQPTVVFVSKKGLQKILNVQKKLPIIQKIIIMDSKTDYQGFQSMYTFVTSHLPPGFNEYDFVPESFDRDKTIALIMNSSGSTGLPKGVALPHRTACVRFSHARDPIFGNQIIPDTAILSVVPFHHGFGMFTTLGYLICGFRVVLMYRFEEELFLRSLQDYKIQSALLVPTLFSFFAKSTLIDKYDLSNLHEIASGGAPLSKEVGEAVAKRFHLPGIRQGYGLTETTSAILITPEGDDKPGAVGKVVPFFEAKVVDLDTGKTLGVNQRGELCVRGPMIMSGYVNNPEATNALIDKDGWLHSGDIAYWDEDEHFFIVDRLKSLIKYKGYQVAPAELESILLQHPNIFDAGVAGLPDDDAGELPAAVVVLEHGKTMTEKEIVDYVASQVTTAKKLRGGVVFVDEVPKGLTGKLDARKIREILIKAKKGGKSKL

Nc1ccn([C@H]2C[C@H](O)[C@@H](COP(=O)(O)OP(=O)(O)OP(=O)(O)O)O2)c(=O)n1 [dCTP, deoxycytidine triphosphate]
luciferase activity (signal intensity, height of ascending curve) (luciferase [1]): do not inhibit luciferase or apyrase
apyrase activity (slope of descending curve, signal width) (apyrase [2]): do not inhibit luciferase or apyrase
effect of preincubation on the sequencing reaction [3]: no negative effect

Nc1nc2c(ncn2[C@H]2C[C@H](O)[C@@H](COP(=O)(O)OP(=O)(O)OP(=O)(O)O)O2)c(=O)[nH]1 [dGTP, deoxyguanosine triphosphate]
luciferase activity (signal intensity, height of ascending curve) (luciferase [1]): do not inhibit luciferase or apyrase
apyrase activity (slope of descending curve, signal width) (apyrase [2]): do not inhibit luciferase or apyrase
effect of preincubation on the sequencing reaction [3]: no negative effect

Nc1ncnc2c1ncn2[C@H]1C[C@H](O)[C@@H](COP(O)(=S)OP(=O)(O)OP(=O)(O)O)O1 (stereo partly drawn) [dATPαS, deoxyadenosine α-thiotriphosphate]
luciferase activity (signal intensity) in the presence of alkaline phosphatase (luciferase [1]; [7]): no inhibition of luciferase
decrease in signal intensity after 50 cycles, less than that obtained with dATP (luciferase [1]; 0.7 mM nucleotide + 2 μM ATP, after 50 cycles, compared with dATP (FIG. 1)): 50%
luciferase activity (signal intensity, height of ascending curve) (luciferase [1]): relatively linear decrease in signal intensity
apyrase activity (signal width) in the presence of alkaline phosphatase (apyrase [2]; [7]): lack of apyrase inhibition
apyrase activity (slope of descending curve, signal width) (apyrase [2]): drastically inhibited in later cycles
inhibition of the sequencing reaction [3]: progressively severe inhibition
effect of preincubation on the sequencing reaction [3]: severe negative effect
apyrase inhibition (signal width, signal definition) (apyrase [4]): apyrase inhibition is particularly occurring
luciferase inhibition (signal intensity, peak height) (luciferase [5]): Some loss of signal intensity

Nc1ncnc2c1ncn2[C@H]1C[C@H](O)[C@@H](COP(=O)(O)OP(=O)(O)OP(=O)(O)O)O1 [dATP, deoxyadenosine triphosphate]
luciferase activity (signal intensity, height of ascending curve) (luciferase [1]): relatively linear decrease in signal intensity

Nc1ncnc2c1ncn2[C@H]1C[C@H](O)[C@@H](COP(O)(=S)OP(=O)(O)OP(=O)(O)O)O1 (single isomer, unassigned) [Rp isomer]
inhibition of the sequencing reaction [3]: Even more pronounced inhibition; also recorded: severe effect on all enzymes involved in the ELIDA detection
apyrase inhibition (signal width, signal definition) (apyrase [4]): increased signal width
luciferase inhibition (signal intensity, peak height) (luciferase [5]): signal intensity is decreased

Nc1ncnc2c1ncn2[C@H]1C[C@H](O)[C@@H](COP(O)(=S)OP(=O)(O)OP(=O)(O)O)O1 (single isomer, unassigned) [Sp isomer]
inhibition of the sequencing reaction [3]: significantly reduced

Nc1ncnc2c1ncn2[C@H]1C[C@H](O)[C@@H](COP(=O)(O)O)O1 [dAMP]
inhibition of luciferase (luciferase [6]): inhibits luciferase

Cc1cn([C@H]2C[C@H](O)[C@@H](COP(=O)(O)OP(=O)(O)OP(=O)(O)O)O2)c(=O)[nH]c1=O [dTTP, deoxythymidine triphosphate]
luciferase activity (signal intensity, height of ascending curve) (luciferase [1]): do not inhibit luciferase or apyrase
apyrase activity (slope of descending curve, signal width) (apyrase [2]): do not inhibit luciferase or apyrase
effect of preincubation on the sequencing reaction [3]: no negative effect
